Conditions: female, Sprague-Dawley, rat, in vivo

Total Net Bone Absorbed: 770
SMILES: NCCCC(O)(P(=O)(O)O)P(=O)(O)O [Alendronate Calcium, alendronate calcium]
